These are literature values, as cited in patent US4743707A, “Process for purifying allyl alcohol” (priority 1986, dated 1988).

For the data set the following is noted: 20° C.; Ullmanns Encyklopadie.

As to `O=P([O-])([O-])OP(=O)([O-])OP(=O)([O-])[O-].[K+].[K+].[K+].[K+].[K+]` [Potassium tripolyphosphate, potassium tripolyphosphate], the water solubility result is listed as “about 67%”.
